Holding throughout (test): relative viability (nuclei count vs DMSO), 5 days (fraction); higher = more cells survive
Compound in assay [1]: COc1cccc2c1C(=O)c1c(O)c3c(c(O)c1C2=O)C[C@@](O)(C(=O)CO)C[C@@H]3O[C@H]1C[C@H](N)[C@H](O)[C@H](C)O1 [Doxorubicin] + NC(=O)Nc1cc(-c2cccc(F)c2)sc1C(=O)N[C@H]1CCCNC1 [AZD7762] (partner 0.2 µM)
The method, boiled down: (§1)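 After 5 days of treatment, lung cancer cells in 1536-well plates were fixed and stained in a single step (final 0.05% Triton X-100, 1% formaldehyde, 1 ug/ml Hoechst) and their nuclei counted on 4× images. Treatment had been applied by pin tool the day after seeding as one drug alone or as a fixed anchor-drug dose with five library-drug doses (not always all listed) in √10 steps. Relative viability is the nuclei count of treated wells divided by that of vehicle wells, and values are medians of duplicate plates.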

Compound in assay [2]: COC1=C(C=C(C=C1)C2=CC3=NC=CN3C(=N2)NC4=C(C=CC=N4)C(=O)N)OC [BAY61-3606] + CC(C)C[C@H](NC(=O)[C@H](Cc1ccccc1)NC(=O)c1cnccn1)B(O)O [Bortezomib] (partner 0.002 µM)
The procedure, abridged:
as §1

Compound in assay [3]: COC1=C(C=C(C=C1)C2=CC3=NC=CN3C(=N2)NC4=C(C=CC=N4)C(=O)N)OC [BAY61-3606] + C[C@@H](Oc1cc(-c2cnn(C3CCNCC3)c2)cnc1N)c1c(Cl)ccc(F)c1Cl [Crizotinib] (partner 1 µM)
The method, boiled down:
as §1

Compound in assay [4]: COc1cccc2c1C(=O)c1c(O)c3c(c(O)c1C2=O)C[C@@](O)(C(=O)CO)C[C@@H]3O[C@H]1C[C@H](N)[C@H](O)[C@H](C)O1 [Doxorubicin] + CC(C)C[C@H](NC(=O)[C@H](Cc1ccccc1)NC(=O)c1cnccn1)B(O)O [Bortezomib] (partner 0.002 µM)
The method, boiled down:
as §1

Take NCI-H838: the relative viability in assay [1] (first compound 0.001 µM) turned out to be 0.921; in assay [1] (first compound 0.003162 µM) it was 0.934; in assay [1] (first compound 0.01 µM), 0.913; in assay [1] (first compound 0.03162 µM), 0.919; in assay [1] (first compound 0.1 µM), 0.749; in assay [2] (first compound 0.02 µM) it was 0.954. Moreover, the relative viability in assay [2] (first compound 0.06325 µM) turned out to be 0.738; in assay [2] (first compound 0.2 µM) it was 0.748; in assay [2] (first compound 0.6325 µM) it was 0.822; in assay [2] (first compound 2 µM), 0.501; in assay [3] (first compound 0.02 µM), 0.82; in assay [3] (first compound 0.06325 µM) it was 0.661. Also, the relative viability turned out to be 0.814 in assay [3] (first compound 0.2 µM); 0.866 in assay [3] (first compound 0.6325 µM); 0.398 in assay [3] (first compound 2 µM); 0.89 in assay [4] (first compound 0.001 µM); 1.03 in assay [4] (first compound 0.003162 µM); 0.967 in assay [4] (first compound 0.01 µM). Moreover, the relative viability in assay [4] (first compound 0.03162 µM) was 0.384; in assay [4] (first compound 0.1 µM), 0.17.

In the case of NCI-H2085, the relative viability in assay [1] (first compound 0.001 µM) was 0.972; in assay [1] (first compound 0.003162 µM), 0.974; in assay [1] (first compound 0.01 µM) it was 0.856; in assay [1] (first compound 0.03162 µM), 1.1; in assay [1] (first compound 0.1 µM) it was 0.896; in assay [2] (first compound 0.02 µM), 1.11. The relative viability in assay [2] (first compound 0.06325 µM) was determined as 1.07; in assay [2] (first compound 0.2 µM), 1.06; in assay [2] (first compound 0.6325 µM) it was 1.13; in assay [2] (first compound 2 µM) it was 0.953; in assay [3] (first compound 0.02 µM), 0.858; in assay [3] (first compound 0.06325 µM) it was 0.882. In addition, the relative viability in assay [3] (first compound 0.2 µM) came to 0.87; in assay [3] (first compound 0.6325 µM) it was 0.863; in assay [3] (first compound 2 µM), 0.702; in assay [4] (first compound 0.001 µM), 0.903; in assay [4] (first compound 0.003162 µM), 1.05; in assay [4] (first compound 0.01 µM), 0.907. In addition, the relative viability in assay [4] (first compound 0.03162 µM) stood at 0.709; in assay [4] (first compound 0.1 µM) it was 0.716.

As to NCI-H661, the relative viability worked out at 0.896 in assay [2] (first compound 0.02 µM); 0.713 in assay [2] (first compound 0.06325 µM); 0.767 in assay [2] (first compound 0.2 µM); 0.724 in assay [2] (first compound 0.6325 µM); 0.556 in assay [2] (first compound 2 µM); 0.914 in assay [3] (first compound 0.02 µM). In addition, the relative viability is 0.806 in assay [3] (first compound 0.06325 µM); 0.984 in assay [3] (first compound 0.6325 µM); 0.957 in assay [3] (first compound 2 µM); 0.919 in assay [4] (first compound 0.001 µM); 0.849 in assay [4] (first compound 0.003162 µM); 0.836 in assay [4] (first compound 0.01 µM). Further, the figures for the relative viability in assay [4] (first compound 0.03162 µM) and in assay [4] (first compound 0.1 µM) were 0.776 and 0.865, respectively.

Take NCI-H23: the relative viability in assay [1] (first compound 0.001 µM) came out at 0.142; in assay [1] (first compound 0.003162 µM), 0.249; in assay [1] (first compound 0.01 µM), 0.229; in assay [1] (first compound 0.03162 µM) it was 0.204; in assay [1] (first compound 0.1 µM), 0.208; in assay [2] (first compound 0.02 µM), 0.97. In addition, the relative viability worked out at 1.36 in assay [2] (first compound 0.06325 µM); 0.871 in assay [2] (first compound 0.2 µM); 1.13 in assay [2] (first compound 0.6325 µM); 0.77 in assay [2] (first compound 2 µM); 0.53 in assay [3] (first compound 0.02 µM); 0.283 in assay [3] (first compound 0.06325 µM). Moreover, the relative viability in assay [3] (first compound 0.2 µM) amounted to 0.505; in assay [3] (first compound 0.6325 µM), 0.486; in assay [3] (first compound 2 µM) it was 0.264; in assay [4] (first compound 0.003162 µM), 1.06; in assay [4] (first compound 0.01 µM) it was 0.93; in assay [4] (first compound 0.03162 µM), 0.514. Also, the relative viability in assay [4] (first compound 0.1 µM) was found to be 0.567.

The values above are taken from the supplement of paper PMC10307832.
